From US20250257059A1, “PROTEIN TYROSINE PHOSPHATASE INHIBITORS AND USES THEREOF” (Nerio Therapeutics, Inc., priority 2022, published 2025)

Assays:
[1] = target: full-length human PTPN2 (TC45) (1-387) (Homo sapiens (Human), UniProt P17706); test: Enzymatic assay used to determine potency of PTPN2 inhibitors (full length PTPN2 DiFMUP assay); assay type: biochemical; details: 0.5 nM PTPN2, 100 μM DiFMUP, 30 min at room temperature
Protocol: Compound activity was determined in an in vitro enzymatic assay using untagged, full-length human PTPN2 (TC45) (1-387) protein. PTPN2 was produced in E. coli as a GST-TEV fusion and the GST was removed by TEV digestion, followed by additional purification to yield full-length PTPN2 (SEQ ID 1). PTPN2 enzyme was diluted in assay buffer (50 mM HEPES pH7.5, 0.2 mM EDTA, 1 mM DTT, 0.02% Brij-35, 0.02% BSA) to a final concentration of 0.5 nM and added to black 384-well non-binding plates (Greiner, 781900). Compounds were subsequently added using a Tecan D300e dispenser. Following a 10 min incubation at room temperature, DiFMUP substrate (ThermoFisher, D22065) was added to a final concentration of 100 μM. Plates were transferred to a SpectraMax plate reader (Molecular Devices) and fluorescence intensity was measured (ex 358, em 455) after a 30 min incubation at room temperature. […] A four-parameter curve fit was used to determine IC50 values from % inhibition data.

[2] = test system: murine B16F10 melanoma cell line; test: B16F10 IFNγ-induced cellular growth inhibition assay (xCELLigence RTCA); assay type: cell-based; details: Mus musculus, B16-F10, 48 h, B16F10 cells, 1 ng/mL mouse IFNγ, AUC of growth curve, read-out: B16 IFNγ Mediated Growth Inhibition Assay: AVG IC50
Protocol: Compound activity was determined using an interferon gamma (IFNγ)-induced cellular growth inhibition assay with the murine B16F10 melanoma cell line on an Agilent xCELLigence Real-Time Cell Analysis platform (RTCA). RTCA E-Plate View 96 plates (Agilent, 300601010) were pre-equilibrated with 50 μL of assay media (DMEM+10% FBS, Gibco 10566-024, Gibco 10082-147) at 37° C. in a humidified incubator before taking an initial measurement of impedance (sweep). B16F10 cells cultured in assay media were dissociated with TrypLE Express (Gibco 12605-010) for five minutes at 37° C., diluted in 3 volumes of assay buffer, centrifuged for 5 minutes at 500×g at room temperature before diluting cells to 7,700 cells/mL in assay media, plating 130 μL/well (1,000 cells/well) in the inner 60 wells of the assay plate, and adding 150 μL of assay media to the outer wells of the plate. Cells were incubated at room temperature for 20 min to allow cells to settle before placing them in the xCELLigence reader and incubating overnight at 37° C., sweeping wells every 15 minutes. After 24 hours, well readings were paused, plates were removed from the incubator and compounds were added using a Tecan D300e dispenser. All wells were normalized to a final concentration of 0.5% DMSO. Following a 30 min incubation at 37° C., recombinant mouse IFNγ (R&D Systems™ 485MI100) was diluted to 10 ng/mL in assay media and 20 μL was added to assay wells (1 ng/mL final concentration). Assay plates were placed in the xCELLigence reader and swept every 15 minutes.

Chain of full-length human PTPN2 (TC45) (1-387) (P17706 other isoform, or with tags, fused parts or gaps): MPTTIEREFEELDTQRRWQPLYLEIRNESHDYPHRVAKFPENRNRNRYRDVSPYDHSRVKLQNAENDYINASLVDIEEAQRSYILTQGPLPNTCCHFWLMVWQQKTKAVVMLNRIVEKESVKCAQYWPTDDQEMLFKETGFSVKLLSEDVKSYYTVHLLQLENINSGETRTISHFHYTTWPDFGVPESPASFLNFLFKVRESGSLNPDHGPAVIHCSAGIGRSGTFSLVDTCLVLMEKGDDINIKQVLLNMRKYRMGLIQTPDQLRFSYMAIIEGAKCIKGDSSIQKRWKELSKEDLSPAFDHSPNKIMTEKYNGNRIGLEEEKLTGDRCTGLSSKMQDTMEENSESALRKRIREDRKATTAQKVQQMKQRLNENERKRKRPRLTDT

Row | IC50 [2] [nM] | SMILES | IC50 [1] [nM]
1 | 1840 | O=C1CN(c2c(O)cc(CCN3CC[C@H](C(F)(F)F)C3)cc2F)S(=O)(=O)N1 (single isomer, unassigned) [Example 123] | 2
2 | 371 | O=C1CN(c2c(O)cc(CCN3CC4(CCCC4)C3)cc2F)S(=O)(=O)N1 [Example 114] | 7
3 | 489 | O=C1CN(c2c(O)cc(CCN3CCC4(CC4)C3)cc2F)S(=O)(=O)N1 [Example 131] | 1
4 | > 100000 | O=C1CN(c2c(O)cc(CCC3CCNC3)cc2F)S(=O)(=O)N1 (stereo not shown) [Example 62] | 16
5 | > 45000 | CCCC1CCCN1Cc1cc(O)c(N2CC(=O)NS2(=O)=O)c(F)c1 (stereo not shown) [Example 70, 5-(2-fluoro-6-hydroxy-4-((2-propylpyrrolidin-1-yl)methyl)phenyl)-1,2,5-thiadiazolidin-3-one 1,1-dioxide] | 204
6 | 509 | C[C@H]1CCN(CCc2cc(O)c(N3CC(=O)NS3(=O)=O)c(F)c2)C1 [Example 139] | 2
7 | > 100000 | CC(C)CN1CCC(CCc2cc(O)c(N3CC(=O)NS3(=O)=O)c(F)c2)C1 (stereo not shown) [Example 63] | 75
8 | > 73000 | CN1CCCC(Cc2cc(O)c(N3CC(=O)NS3(=O)=O)c(F)c2)CC1 (stereo not shown) [Example 60] | 24
9 | > 41000 | CN1CCC(CCc2cc(O)c(N3CC(=O)NS3(=O)=O)c(F)c2)C1 (stereo not shown) [Example 61, 5-(2-fluoro-6-hydroxy-4-(2-(1-methylpyrrolidin-3-yl)ethyl)phenyl)-1,2,5-thiadiazolidin-3-one 1,1-dioxide] | 19
10 | 363 | CC(C)CCN1CCCC[C@@H]1Cc1ccc(O)c(N2CC(=O)NS2(=O)=O)c1F (single isomer, unassigned) [Example 81] | 3
11 | 432 | O=C1CN(c2c(O)cc(CCN3CC[C@@H](F)C3)cc2F)S(=O)(=O)N1 [Example 95] | 2
12 | 542 | O=C1CN(c2c(O)cc(CCN3CC(CC(F)(F)F)C3)cc2F)S(=O)(=O)N1 [Example 142] | 3
13 | 36300 | CC(C)CCN1CCCC[C@H]1Cc1ccc(O)c(N2CC(=O)NS2(=O)=O)c1F (single isomer, unassigned) [Example 82] | 76
14 | 2830 | O=C1CN(c2c(O)cc(CCN3CCC(C4CCC4)CC3)cc2F)S(=O)(=O)N1 [Example 121] | 2
15 | 1220 | O=C1CN(c2c(O)cc(CCN3CCCCC3)cc2F)S(=O)(=O)N1 [Example 90] | 2
16 | 475 | CC1(C)CCN(CCc2cc(O)c(N3CC(=O)NS3(=O)=O)c(F)c2)CC1 [Example 93] | 3
17 | 8920 | CC(C)CCN1CCCCC1Cc1ccc(O)c(N2CC(=O)NS2(=O)=O)c1F (stereo not shown) [Example 76] | 6
18 | 127 | CC[C@@H]1CCN(CCc2cc(O)c(N3CC(=O)NS3(=O)=O)c(F)c2)C1 [Example 110] | 2
19 | 406 | C[C@@H]1CCN(CCc2cc(O)c(N3CC(=O)NS3(=O)=O)c(F)c2)C1 [Example 138] | 2
20 | 19300 | CCCC1CCN(Cc2cc(O)c(N3CC(=O)NS3(=O)=O)c(F)c2)C1 (stereo not shown) [Example 71] | 65
21 | 504 | O=C1CN(c2c(O)cc(CCN3CCC(F)C3)cc2F)S(=O)(=O)N1 (stereo not shown) [Example 92] | 3
22 | 1040 | O=C1CN(c2c(O)cc(CCN3CC4CCC3C4)cc2F)S(=O)(=O)N1 (stereo not shown) [Example 133] | 3
23 | 1690 | O=C1CN(c2c(O)cc(CCN3CCC(O)CC3)cc2F)S(=O)(=O)N1 [Example 101] | 2
24 | > 100000 | CC(C)CN1CCCC1CCc1cc(O)c(N2CC(=O)NS2(=O)=O)c(F)c1 (stereo not shown) [Example 68] | 46
25 | 605 | O=C1CN(c2c(O)cc(CCN3CCC(CO)C3)cc2F)S(=O)(=O)N1 (stereo not shown) [Example 102] | 2
26 | 13200 | O=C1CN(c2c(O)cc(CCN3CCC(O)C3)cc2F)S(=O)(=O)N1 (stereo not shown) [Example 103] | 50
27 | 8440 | CC(C)CC1CCN(Cc2cc(O)c(N3CC(=O)NS3(=O)=O)c(F)c2)C1 (stereo not shown) [Example 72] | 66
28 | 256 | O=C1CN(c2c(O)cc(CCN3CCC4(CC3)CC4)cc2F)S(=O)(=O)N1 [Example 107] | 2

Continued, molecule first:

Row | SMILES | IC50 [2] [nM] | IC50 [1] [nM]
29 | O=C1CN(c2c(O)cc(CC3CCCN(Cc4ncc[nH]4)C3)cc2F)S(=O)(=O)N1 (stereo not shown) [Example 52] | > 73000 | 44
30 | CN(C)CCN1CCC(Cc2cc(O)c(N3CC(=O)NS3(=O)=O)c(F)c2)C1 (stereo not shown) [Example 3] | > 100000 | 3
31 | O=C1CN(c2c(O)cc(C[C@@H]3CCCNCC3)cc2F)S(=O)(=O)N1 (single isomer, unassigned) [Example 59] | > 47000 | 16
32 | O=C1CN(c2c(O)cc(CC3CCN(CC4CCC4)C3)cc2F)S(=O)(=O)N1 (stereo not shown) [Example 22] | 1230 | 10
33 | CCCCN1CCC(Cc2cc(O)c(N3CC(=O)NS3(=O)=O)c(F)c2)C1 (stereo not shown) [Example 8] | 18600 | 88
34 | CC(C)(C)CCN1CCCC(Cc2cc(O)c(N3CC(=O)NS3(=O)=O)c(F)c2)C1 (stereo not shown) [Example 35] | 13000 | 31
35 | O=C1CN(c2c(O)cc(CC3CCCN(CCC4CCOCC4)C3)cc2F)S(=O)(=O)N1 (stereo not shown) [Example 40] | 38600 | 46
36 | CCN1CCCC(Cc2cc(O)c(N3CC(=O)NS3(=O)=O)c(F)c2)C1 (stereo not shown) [Example 51] | 27600 | 63
37 | CCCC1CNCC1Cc1cc(O)c(N2CC(=O)NS2(=O)=O)c(F)c1 (stereo not shown) [Example 29] | > 62000 | 13
38 | CC(C)CN1CCCC(Cc2cc(O)c(N3CC(=O)NS3(=O)=O)c(F)c2)C1 (stereo not shown) [Example 50] | > 100000 | 91
39 | CCCCCN1CCCC(Cc2cc(O)c(N3CC(=O)NS3(=O)=O)c(F)c2)C1 (stereo not shown) [Example 33] | 28800 | 35
40 | O=C1CN(c2c(O)cc(CC3CCCN(CC4CCCO4)C3)cc2F)S(=O)(=O)N1 (stereo not shown) [Example 43] | 95900 | 63
41 | O=C1CN(c2c(O)cc(CC3CCN(Cc4cnco4)C3)cc2F)S(=O)(=O)N1 (stereo not shown) [Example 4] | > 100000 | 14
42 | CC(C)(C)CCN1CCC(Cc2cc(O)c(N3CC(=O)NS3(=O)=O)c(F)c2)C1 (stereo not shown) [Example 23] | 4330 | 14
43 | O=C1CN(c2c(O)cc(CC3CCCN(CC4CCNCC4)C3)cc2F)S(=O)(=O)N1 (stereo not shown) [Example 44] | 38000 | 4
44 | CN1CCCCC1Cc1ccc(O)c(N2CC(=O)NS2(=O)=O)c1F (stereo not shown) [Example 74, 5-(2-fluoro-6-hydroxy-3-((1-methylpiperidin-2-yl)methyl)phenyl)-1,2,5-thiadiazolidin-3-one 1,1-dioxide] | 9290 | 161
45 | O=C1CN(c2c(O)cc(CC3CCN(CC4CCCC4)C3)cc2F)S(=O)(=O)N1 (stereo not shown) [Example 21] | 4590 | 15
46 | O=C1CN(c2c(O)cc(C[C@H]3CCCNCC3)cc2F)S(=O)(=O)N1 (single isomer, unassigned) [Example 58] | > 100000 | 51
47 | O=C1CN(c2c(O)cc(CC3CCCN(Cc4cc[nH]c4)C3)cc2F)S(=O)(=O)N1 (stereo not shown) [Example 39] | > 100000 | 63
